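96-well plates; 48 h exposure; 5 concentrations. Endpoints by linear interpolation between flanking doses. Not reached: highest tested concentration assigned. GI50: concentration for 50% inhibition of growth.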 Calls of active or inactive are those of the source. Cut-off read from the data, not from the text of the source: active = GI50 up to about 1.1 µM and inactive = higher. Bounds are passed on as bounds.

Some test systems named below: COLO 205; LOX IMVI; SK-MEL-28; HL-60; NCI-H226; SK-MEL-5; NCI-H460; OVCAR-3; A549; SF-539; NCI-H522; UACC-257; EKVX; MCF7; SF-268; MOLT-4; KM12; SW-620; CAKI-1; ACHN.
Common to all, as to test: inhibition of tumour cell growth, NCI panel, 48 h

As for `COc1nc(O)c(N)c(NC2OC(CO)C(O)C(O)C2O)n1` (configuration not stated), the GI50 with COLO 205 is > 100 µM (inactive); in the experiment on LOX IMVI it was > 100 µM (inactive); in the experiment on SK-MEL-28, > 100 µM (inactive); with HL-60 it was > 82.8 µM (inactive); in the experiment with NCI-H226 it was > 31.6 µM (inactive); in the experiment on SK-MEL-5 it was > 100 µM (inactive). In addition, the GI50 with NCI-H460, in the experiment with OVCAR-3, in the experiment on A549, in the experiment with SF-539, with NCI-H522 and with UACC-257 was > 100 µM (inactive) throughout. The GI50 with EKVX, in the experiment on MCF7, with SF-268, in the experiment with MOLT-4, in the experiment with KM12 and in the experiment with SW-620 was > 100 µM (inactive) in each case.

For `O=C(O)C1Cc2c([nH]c3ccccc23)C=N1` (configuration not stated), the GI50 in the experiment with COLO 205, in the experiment with LOX IMVI, with SK-MEL-28, in the experiment with HL-60, in the experiment on CAKI-1 and in the experiment with SK-MEL-5 was > 100 µM (inactive) throughout. Moreover, the GI50 in the experiment on NCI-H460, with OVCAR-3, with A549, with SF-539, in the experiment on NCI-H522 and in the experiment with UACC-257 was > 100 µM (inactive) in each case. Further, the GI50 in the experiment on EKVX, with MCF7, with SF-268, with MOLT-4 and in the experiment with SW-620 was > 100 µM (inactive) in each case.

Turning to `Cc1oc(N)c(S(=O)(=O)c2cc3ccccc3[n+]([O-])c2N)c1C`, the GI50 in the experiment with COLO 205, in the experiment with LOX IMVI, in the experiment with SK-MEL-28, in the experiment with CAKI-1, in the experiment with NCI-H226 and in the experiment with SK-MEL-5 was > 100 µM (inactive) throughout. Moreover, the GI50 in the experiment with NCI-H460, with OVCAR-3, with A549, with SF-539, in the experiment on NCI-H522 and with UACC-257 was > 100 µM (inactive) in each case. The GI50 in the experiment with EKVX, in the experiment on MCF7, with SF-268, with MOLT-4, in the experiment on KM12 and with ACHN was > 100 µM (inactive) in each case. Also, the GI50 in the experiment with SW-620 was > 100 µM (inactive).

With `Cc1ccc(S(=O)(=O)N/N=C2/C3CCC(C3)C2c2ccccc2)cc1` (configuration not stated), the GI50 in the experiment on COLO 205, in the experiment on LOX IMVI, in the experiment with SK-MEL-28, in the experiment on HL-60, in the experiment with CAKI-1 and in the experiment on NCI-H226 was > 100 µM (inactive) each time. Further, the GI50 in the experiment with SK-MEL-5, in the experiment on NCI-H460, in the experiment with OVCAR-3, in the experiment with A549, in the experiment on NCI-H522 and with UACC-257 was > 100 µM (inactive) each time. In addition, the GI50 in the experiment on EKVX, in the experiment with MCF7, in the experiment on SF-268, in the experiment on MOLT-4, with KM12 and in the experiment with ACHN was > 100 µM (inactive) in each case. For the same compound, the GI50 with SW-620 is > 100 µM (inactive).

For `Cc1ccc(C(=O)N/N=C(\N=N\c2cccc([N+](=O)[O-])c2)c2ccc(N(CCC#N)CCC#N)cc2C)cc1`, the GI50 in the experiment on COLO 205 is 4.73 µM (inactive); in the experiment with LOX IMVI, 24.5 µM (inactive); in the experiment with SK-MEL-28, > 46.8 µM (inactive); with HL-60, 12.9 µM (inactive); in the experiment on CAKI-1 it was 38.9 µM (inactive); in the experiment with SK-MEL-5 it was 13.6 µM (inactive). Further, the GI50 in the experiment with NCI-H460 was 29 µM (inactive); with OVCAR-3, 2.32 µM (inactive); with A549, 31.9 µM (inactive); with SF-539, 4.58 µM (inactive); in the experiment with NCI-H522, 20.4 µM (inactive); in the experiment on UACC-257, 10.6 µM (inactive). Moreover, the GI50 in the experiment with EKVX was 25.5 µM (inactive); in the experiment on MCF7 it was 13.2 µM (inactive); with SF-268, 33.6 µM (inactive); in the experiment on MOLT-4 it was 24 µM (inactive); with KM12, 19.7 µM (inactive); with ACHN, 42.9 µM (inactive). Further, the GI50 in the experiment with SW-620 was 38.7 µM (inactive).

On to `NC(=O)CC(/N=C1\C(=O)OC(C(O)CO)\C1=N/C(CC(N)=O)C(=O)O)C(=O)O` (configuration not stated), for which the GI50 in the experiment on COLO 205, with SK-MEL-28, in the experiment with HL-60, in the experiment with CAKI-1, in the experiment on NCI-H226 and in the experiment with SK-MEL-5 was > 100 µM (inactive) in each case. The GI50 in the experiment with NCI-H460, in the experiment with A549, in the experiment with SF-539, in the experiment with NCI-H522, in the experiment with UACC-257 and in the experiment with EKVX was > 100 µM (inactive) throughout. The GI50 in the experiment on MCF7, in the experiment with SF-268, in the experiment on MOLT-4, in the experiment with KM12, in the experiment with ACHN and in the experiment with SW-620 was > 100 µM (inactive) throughout.

As to `Cc1c2c(n(CCc3ccccc3)c1C)N(C)N=C(C#N)S2(=O)=O`, the GI50 in the experiment on SK-MEL-28, with CAKI-1, with NCI-H226, in the experiment with SK-MEL-5, in the experiment with NCI-H460 and with OVCAR-3 was > 100 µM (inactive) in each case. Moreover, the GI50 in the experiment with A549 was > 100 µM (inactive); in the experiment with SF-539, 7.69 µM (inactive); in the experiment on NCI-H522, > 100 µM (inactive); in the experiment with UACC-257, > 100 µM (inactive); with EKVX, > 100 µM (inactive); with MCF7, > 100 µM (inactive). Further, the GI50 with SF-268, in the experiment with MOLT-4, in the experiment with KM12, in the experiment with ACHN and with SW-620 was > 100 µM (inactive) each time.

As for `Fc1ccccc1C1SCc2nc3cc4ccccc4cc3n21` (configuration not stated), the GI50 is 86.7 µM (inactive) with COLO 205; 54.3 µM (inactive) with SK-MEL-28; 13.2 µM (inactive) with HL-60; 37 µM (inactive) with CAKI-1; 75.5 µM (inactive) in the experiment on NCI-H226; 71.1 µM (inactive) in the experiment with SK-MEL-5. In addition, the GI50 was 26.5 µM (inactive) with NCI-H460; > 100 µM (inactive) with OVCAR-3; 64.9 µM (inactive) in the experiment with A549; 18.7 µM (inactive) in the experiment on NCI-H522; 61.1 µM (inactive) with UACC-257; 67.6 µM (inactive) with EKVX. Besides, the GI50 was 22.7 µM (inactive) in the experiment with MCF7; 45.3 µM (inactive) in the experiment on SF-268; > 100 µM (inactive) with MOLT-4; > 100 µM (inactive) in the experiment on KM12; 28.8 µM (inactive) in the experiment on ACHN; 85.7 µM (inactive) in the experiment on SW-620.

Take `CN1COCc2c1ccc1cc3ccc4c(c3nc21)COCN4S(C)(=O)=O`: the GI50 with COLO 205, in the experiment on LOX IMVI, in the experiment with SK-MEL-28, in the experiment on CAKI-1, in the experiment on NCI-H226 and in the experiment on SK-MEL-5 was > 100 µM (inactive) in each case. For the same compound, the GI50 is > 100 µM (inactive) in the experiment on NCI-H460; > 100 µM (inactive) in the experiment on OVCAR-3; > 100 µM (inactive) in the experiment on A549; > 100 µM (inactive) with NCI-H522; > 100 µM (inactive) in the experiment on UACC-257; 78 µM (inactive) with EKVX. The GI50 in the experiment with MCF7 is 0.202 µM (active); with SF-268, > 100 µM (inactive); with MOLT-4 it was > 100 µM (inactive); in the experiment with KM12, > 100 µM (inactive); with ACHN it was > 100 µM (inactive); in the experiment with SW-620, > 100 µM (inactive).

In the case of `COc1ccccc1-c1cc(O)c2c(C)cc(C)nc2n1`, the GI50 in the experiment with COLO 205 is 36.1 µM (inactive); with LOX IMVI it was 75.2 µM (inactive); in the experiment on SK-MEL-28 it was > 100 µM (inactive); in the experiment on CAKI-1 it was 40.3 µM (inactive); with NCI-H226, > 100 µM (inactive); in the experiment on A549, 59.7 µM (inactive). Moreover, the GI50 in the experiment on SF-539 was > 100 µM (inactive); in the experiment on NCI-H522, 43.7 µM (inactive); in the experiment on UACC-257, 50.5 µM (inactive); in the experiment on EKVX, 67.5 µM (inactive); in the experiment on MCF7, 46.8 µM (inactive); with SF-268 it was 84.3 µM (inactive). Moreover, the GI50 is 30 µM (inactive) with MOLT-4, 29.1 µM (inactive) in the experiment with KM12, 46.3 µM (inactive) in the experiment on ACHN and 61.7 µM (inactive) with SW-620.

For the compound `CN(C)c1nc2sc3c(c2c(=O)o1)CCCC3`, the GI50 with COLO 205 was 23.6 µM (inactive); in the experiment on LOX IMVI, 52 µM (inactive); with SK-MEL-28 it was 71.3 µM (inactive); in the experiment with HL-60, 27 µM (inactive); in the experiment with CAKI-1, 35.3 µM (inactive); in the experiment on NCI-H226, 15.3 µM (inactive). Further, the GI50 is 23.8 µM (inactive) in the experiment with SK-MEL-5; 44.5 µM (inactive) with NCI-H460; 29.2 µM (inactive) in the experiment with A549; 43.3 µM (inactive) in the experiment with SF-539; 25.4 µM (inactive) in the experiment with NCI-H522; 73.8 µM (inactive) with UACC-257. Besides, the GI50 is 25.5 µM (inactive) in the experiment with EKVX; 48.3 µM (inactive) with MCF7; 52.2 µM (inactive) with MOLT-4; 21.6 µM (inactive) in the experiment with KM12; 34.1 µM (inactive) in the experiment on ACHN; 54.8 µM (inactive) in the experiment with SW-620.

The record behind these values is ChEMBL document CHEMBL1201862, “PubChem BioAssay data set” (2004).
